Laboratory results taken from patent publication US10669284B2, “Fused thiazolopyrimidine derivatives as MNKS inhibitors” (LIFEARC, priority 2015, dated 2020).
Read-outs that look alike come from different tables or passages of the source.

How the values were obtained:
Full-length human MNK1 = molecular target: T1, Full-length human MNK1 (Homo sapiens, UniProt Q9BUB5, T385D); assay: MNK1 biochemical IC50 assay (Caliper Mobility Shift Assay)
T1 construct: GST (N); purchased Carna Biosciences 02-145; host or cells: baculovirus expression system
T1 sequence (Q9BUB5 1-424 isoform Q9BUB5-2 T344D): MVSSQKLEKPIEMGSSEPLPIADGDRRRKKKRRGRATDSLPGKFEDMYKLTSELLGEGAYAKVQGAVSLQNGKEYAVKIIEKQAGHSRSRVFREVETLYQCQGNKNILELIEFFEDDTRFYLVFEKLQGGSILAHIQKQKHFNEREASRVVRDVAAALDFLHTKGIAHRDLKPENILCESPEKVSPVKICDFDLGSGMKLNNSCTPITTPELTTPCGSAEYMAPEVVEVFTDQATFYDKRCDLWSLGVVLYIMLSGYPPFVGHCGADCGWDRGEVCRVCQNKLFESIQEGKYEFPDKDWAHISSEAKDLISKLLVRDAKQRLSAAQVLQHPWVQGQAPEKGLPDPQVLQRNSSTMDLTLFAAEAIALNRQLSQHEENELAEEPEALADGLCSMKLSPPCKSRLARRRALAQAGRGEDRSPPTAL
Text: (§1) The phosphorylated peptide product and unphosphorylated peptide substrate were detected using a Caliper Mobility Shift Assay using the Caliper LabChip EZ Reader II.
(§2) The Caliper Mobility Shift Assay technology is based on the utilisation of a microfluidic chip to measure the conversion of a fluorescent non-phosphorylated peptide substrate to phosphorylated product by electrophoresis separation of substrate and product and detection via Laser-induced fluorescence. The LabChip EZ Reader software calculates the relative heights of substrate and product peaks and reports the peak ratio (Product peak(P) divided by the sum of Product peak(P) and Substrate peak(S)). The percent-conversion is calculated as 100×[(P/(P+S)]. All assays were set up to run in the linear phase with a maximum of 10 percent substrate conversion.
(§3) These were N-terminal GST fusion proteins expressed in baculovirus expression system and purified by glutathione sepharose affinity chromatography. […] All other assay reagents were sourced from Sigma.
Compounds were serially diluted in DMSO to generate a 10-point half log dilution curve with a final top concentration of 100 uM in the assay. […] Compounds were pre-incubated with enzyme and peptide in reaction buffer for 30 mins prior to addition of ATP to initiate the reaction. Final assay concentrations were 3 nM MNK1, 2 uM peptide substrate, 50 uM ATP, 50 mM Hepes pH 7.0, 0.01% BSA, 10 mM MgCl2, 1 mM dithiothrietol.
(§4) The assay incubation times were adjusted depending on the concentration of ATP used. Assays were performed at low (50 uM) and high (1 mM) ATP. The low ATP values were selected to run at Km conditions for the standard assay to allow relative potencies to be compared across other kinases. The high ATP concentration was selected as representative of cellular ATP concentrations, and for an indication of ATP competition, where a significant shift (greater than half log) in apparent potency would be expected compared to Km conditions. All IC50 values reported are the average of at least two independent experiments.

Full-length human MNK2 = molecular target: T2, Full-length human MNK2 (Homo sapiens, UniProt Q9HBH9, T379D); assay: MNK2 biochemical IC50 assay (Caliper Mobility Shift Assay)
T2 construct: GST (N); purchased Carna Biosciences 02-146; host or cells: baculovirus expression system
T2 sequence (Q9HBH9 whole entry T379D): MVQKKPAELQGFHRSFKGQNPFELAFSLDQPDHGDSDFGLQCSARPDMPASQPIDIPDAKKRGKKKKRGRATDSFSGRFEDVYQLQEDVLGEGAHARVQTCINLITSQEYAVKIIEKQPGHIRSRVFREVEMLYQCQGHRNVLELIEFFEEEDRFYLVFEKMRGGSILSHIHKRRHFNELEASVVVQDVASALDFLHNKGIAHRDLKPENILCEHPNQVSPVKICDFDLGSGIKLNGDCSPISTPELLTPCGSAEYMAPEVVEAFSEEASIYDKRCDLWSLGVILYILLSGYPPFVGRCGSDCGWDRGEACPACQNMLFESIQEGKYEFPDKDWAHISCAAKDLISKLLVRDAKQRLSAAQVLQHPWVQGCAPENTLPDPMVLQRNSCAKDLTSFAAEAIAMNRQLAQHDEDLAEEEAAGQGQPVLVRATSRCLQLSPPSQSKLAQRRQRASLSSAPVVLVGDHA
Text: as §1, §2, §3, §4
Reactions were performed as above using 10 nM MNK2 in the assay. Standard assays contained 50 uM ATP and high concentration ATP assays contained 1 mM ATP. […] All other conditions were the same.

[1] = tested on: phosphorylation of eIF4E at ser209 in MV4.11 cell line; assay: MNK cellular activity phospho-eIF4E detection assay (Alphascreen Surefire); format: cell-based; conditions: Homo sapiens; MV4.11 cell line, phospho-eIF4E (ser209) Alphascreen Surefire; read-out: P(IC50) elF4E (converted)
Protocol: The assay detection is based on the formation of sandwich antibody complexes coupled to donor and acceptor beads. Excitation at 680 nm causes the transfer of a singlet oxygen species between donor and acceptor beads when they are in close proximity by binding to the analyte ([…]), which results in the emission of light at 520-620 nm.
Cells were then lysed and the Alphascreen Surefire protocol followed according to manufacturer's recommendations. 8 ul Acceptor beads (1:50 dilution in kit activation buffer) was added to lysate, shaken 150 rpm for 2 min and incubated for 1.5 hr at room temperature. 3 ul Donor beads (1:20 dilution in kit dilution buffer) were then added, shaken 150 rpm for 2 min and incubated for a further 1.5 hr at room temperature after which the plates were read on Pherastar FS using Alphascreen optic module.
Data were normalised relative to untreated DMSO only controls and curves repeated in duplicate within experiments. Data reported are averages of at least 2 independent experiments.

[2] = read-out: P(IC50) MNK1 (converted)
[3] = read-out: P(IC50) MNK2 (converted)

Row | IC50 (Full-length human MNK1; [2]) [nM] | IC50 (Full-length human MNK2; [3]) [nM] | IC50 [1] [nM] | IC50 (Full-length human MNK1) [nM] | IC50 (Full-length human MNK2) [nM] | Structure (SMILES)
1 | 3.98 | 3.16 | 3.98 | – | – | CN1CCC(NC(=O)c2nc3c(N4CCc5cc(F)ccc54)ncnc3s2)CC1 [Example 67, 7-(5-fluoroindolin-1-yl)-N-(1-methyl-4-piperidyl)thiazolo[5,4-d]pyrimidine-2-carboxamide]
2 | 501 | 200 | 100 | – | – | CC(=O)Nc1ccc2c(c1)CCN2c1ncnc2sc(C(=O)NC3CCN(C)CC3)nc12 [Example 46, 7-[5-(Acetylamino)-2,3-dihydro-1H-indol-1-yl]-N-(1-methylpiperidin-4-yl)[1,3]thiazolo[5,4-d]pyrimidine-2-carboxamide]
3 | 3.16 | 3.16 | – | – | – | O=C(NCC1CCNCC1)c1nc2c(N3CCc4cc(Cl)ccc43)ncnc2s1 [Example 168, 7-(5-Chloroindolin-1-yl)-N-(4-piperidylmethyl)thiazolo[5,4-d]pyrimidine-2-carboxamide]
4 | – | 631 | 501 | – | – | CC(C)Oc1ccc2c(c1)CCN2c1ncnc2sc(C(=O)NC3CCOCC3)nc12 [Example 116, 7-(5-Isopropoxyindolin-1-yl)-N-tetrahydropyran-4-yl-thiazolo[5,4-d]pyrimidine-2-carboxamide]

Second part, the compound before the results:

Row | Structure (SMILES) | IC50 (Full-length human MNK1; [2]) [nM] | IC50 (Full-length human MNK2; [3]) [nM] | IC50 [1] [nM] | IC50 (Full-length human MNK1) [nM] | IC50 (Full-length human MNK2) [nM]
5 | CNCCNC(=O)c1nc2c(N3CCc4cc(F)ccc43)ncnc2s1 [Example 71, 7-(5-fluoroindolin-1-yl)-N-[2-(methylamino)ethyl]thiazolo[5,4-d]pyrimidine-2-carboxamide] | 10 | 6.31 | 15.8 | – | –
6 | O=C(NC1CCOCC1)c1nc2c(-n3ccc4ccccc43)ncnc2s1 [Example 117, 7-Indol-1-yl-N-tetrahydropyran-4-yl-thiazolo[5,4-d]pyrimidine-2-carboxamide] | 50.1 | 31.6 | 50.1 | – | –
7 | OCc1nc2c(N3CCc4cc(F)ccc43)ncnc2s1 [Example 81, [7-(5-Fluoroindolin-1-yl)thiazolo[5,4-d]pyrimidin-2-yl]methanol] | 39.8 | 20 | 100 | – | –
8 | CC(C)Oc1cc(F)ccc1Nc1ncnc2sc(C(=O)NCCC3CCN(C)CC3)nc12 [Example 37, 7-{[4-fluoro-2-(propan-2-yloxy)phenyl]amino}-N-[2-(1-methylpiperidin-4-yl)ethyl][1,3]thiazolo[5,4-d]pyrimidine-2-carboxamide] | 39.8 | 39.8 | 25.1 | – | –
9 | CO[C@H]1CCCC[C@@H]1Oc1cc(F)ccc1Nc1ncnc2sc(C(=O)NCCCN(C)C)nc12 [Example 21] | – | 1260 | 316 | – | –
10 | O=C(NCCCN1CCCC1)c1nc2c(N3CCc4cc(F)ccc43)ncnc2s1 [Example 68] | – | – | – | 2 | 2
11 | CN(C)CCCNC(=O)c1nc2c(N3CC(C)(C)c4ccccc43)ncnc2s1 [Example 25, N-[3-(Dimethylamino)propyl]-7-(3,3-dimethylindolin-1-yl)thiazolo[5,4-d]pyrimidine-2-carboxamide] | 6.31 | – | – | – | 3.98
12 | CN(C)CCCNC(=O)c1nc2c(N3CCc4ccccc43)ncnc2s1 [Example 27, N-[3-(Dimethylamino)propyl]-7-indolin-1-yl-thiazolo[5,4-d]pyrimidine-2-carboxamide] | 10 | – | – | – | 7.94
13 | CC(C)Oc1cc(F)ccc1Nc1ncnc2sc(C(=O)NCCN3CCNCC3)nc12 [Example 9, 7-(4-fluoro-2-isopropoxy-anilino)-N-(2-piperazin-1-ylethyl)thiazolo[5,4-d]pyrimidine-2-carboxamide] | 50.1 | – | – | – | 31.6
14 | O=C(NCC1CCNCC1)c1nc2c(Nc3ccc(F)cc3OC(F)(F)F)ncnc2s1 [Example 59, 7-[4-fluoro-2-(trifluoromethoxy)anilino]-N-(4-piperidylmethyl)thiazolo[5,4-d]pyrimidine-2-carboxamide] | – | 1580 | 631 | – | –
